Measurements as given in patent publication US8669249B2, “Poly (ADP-ribose) polymerase (PARP) inhibitors” (Takeda Pharmaceutical Company Limited, priority 2009, dated 2014).

Legend:
[1] = biological target: T1, catalytic domain of Human PARP (Homo sapiens, UniProt P09874); assay: Biacore surface plasmon resonance affinity assay; type: binding; conditions: pKD=-log10 KD, KD in mol/L; Biacore T100, 25° C.; read-out: pKD (converted)
T1 construct: The catalytic domain of Human PARP was cloned and prepared; made in house
Outline: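 Binding at 25° C on Biacore T100: 1 min compound association then 5 min dissociation (50 μL/min) over immobilized PARP catalytic domain, buffer HBS-P plus 1% DMSO, 0.5 mM TCEP, 5 mM MgCl2, 2-fold dilution series. KD derived as koff/kon from fitted association and dissociation phases.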

Jurkat cell line = assay: PARP cellular chemopotentiation assay (MTS, with/without TMZ); type: cell-based; conditions: Chemopotentiation factor: ratio of EC50 values of Jurkat cells co-treated without and with 100 μM TMZ; 96 hours
Method: Potentiation Factor (PF50) Determination from PARP Cellular Chemopotentiation Assay
Jurkat cell line was maintained according to the supplier (American Type Culture Collection (Rockville, Md.)). Cells were seeded in 96-well tissue culture microplates at 10,000 cells per well and cultured for 24 hours prior to addition of compounds, TMZ (Temozolomide) or DMSO (dimethylsulfoxide) vehicle. After 96 hours of treatment, the conversion of MTS ([3-(4,5-dimethylthiazol-2-yl)-5-(3-carboxymethoxyphenyl)-2-(4-sulfophenyl)-2H-tetrazolium, inner salt], Promega, Madison, Wis.) by metabolically active cells was determined through measuring the OD490 nm with a Spectramax microplate reader (Molecular Devices, San Diego, Calif.). To generate concentration-response curves, cells were treated in duplicate with a range of serial compound dilutions (final DMSO concentration was 0.5%) in the absence or presence of 100 μM TMZ chemoreagent. The percentage of viable cells per well was calculated by correction for background and normalizing against DMSO-treated cells. EC50 values for inhibition of cell viability were calculated using XLfit4 MicroSoft Excel curve-fitting software. Chemopotentiation factor PF50 was calculated as the ratio of EC50 values of cells co-treated without and with TMZ, respectively.

PARP = biological target: T2, PARP (Homo sapiens, UniProt P09874); assay: PARP ELISA (ELISA-based colorimetric PARP/Apoptosis Assay kit, Trevigen); type: biochemical; conditions: pIC50=-log10 IC50, IC50 in mol/L; inhibition of PARP catalytic activity
T2 construct: purchased Trevigen 4684-096-K HT (kit); 4684-096-01 (PARP enzyme)
Method: Inhibition Constant (IC50) from PARP ELISA
After 10 minutes of catalysis the reaction is quenched by solvent aspiration followed by irrigation of the assay wells 4 times with phosphate buffered saline (PBS) containing 0.1% t-Octylphenoxypolyethoxyethanol (Triton® X-100). Mouse Anti-poly ADP ribose (PAR) monoclonal antibody, goat antimouse immunoglobulin G (IgG)-horse radish peroxidase (HRP) conjugate and HRP substrate are added according to the manufacture's specifications to generate a colorimetric signal proportional to PARP catalytic activity.

T1 sequence (P09874 788-1014 limits assumed): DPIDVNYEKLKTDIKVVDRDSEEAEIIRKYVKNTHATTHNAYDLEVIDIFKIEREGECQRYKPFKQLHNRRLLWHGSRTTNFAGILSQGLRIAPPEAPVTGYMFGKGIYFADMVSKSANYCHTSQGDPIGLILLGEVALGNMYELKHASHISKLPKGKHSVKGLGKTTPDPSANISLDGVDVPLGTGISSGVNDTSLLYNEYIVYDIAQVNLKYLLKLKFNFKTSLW
T2 sequence (P09874 whole entry): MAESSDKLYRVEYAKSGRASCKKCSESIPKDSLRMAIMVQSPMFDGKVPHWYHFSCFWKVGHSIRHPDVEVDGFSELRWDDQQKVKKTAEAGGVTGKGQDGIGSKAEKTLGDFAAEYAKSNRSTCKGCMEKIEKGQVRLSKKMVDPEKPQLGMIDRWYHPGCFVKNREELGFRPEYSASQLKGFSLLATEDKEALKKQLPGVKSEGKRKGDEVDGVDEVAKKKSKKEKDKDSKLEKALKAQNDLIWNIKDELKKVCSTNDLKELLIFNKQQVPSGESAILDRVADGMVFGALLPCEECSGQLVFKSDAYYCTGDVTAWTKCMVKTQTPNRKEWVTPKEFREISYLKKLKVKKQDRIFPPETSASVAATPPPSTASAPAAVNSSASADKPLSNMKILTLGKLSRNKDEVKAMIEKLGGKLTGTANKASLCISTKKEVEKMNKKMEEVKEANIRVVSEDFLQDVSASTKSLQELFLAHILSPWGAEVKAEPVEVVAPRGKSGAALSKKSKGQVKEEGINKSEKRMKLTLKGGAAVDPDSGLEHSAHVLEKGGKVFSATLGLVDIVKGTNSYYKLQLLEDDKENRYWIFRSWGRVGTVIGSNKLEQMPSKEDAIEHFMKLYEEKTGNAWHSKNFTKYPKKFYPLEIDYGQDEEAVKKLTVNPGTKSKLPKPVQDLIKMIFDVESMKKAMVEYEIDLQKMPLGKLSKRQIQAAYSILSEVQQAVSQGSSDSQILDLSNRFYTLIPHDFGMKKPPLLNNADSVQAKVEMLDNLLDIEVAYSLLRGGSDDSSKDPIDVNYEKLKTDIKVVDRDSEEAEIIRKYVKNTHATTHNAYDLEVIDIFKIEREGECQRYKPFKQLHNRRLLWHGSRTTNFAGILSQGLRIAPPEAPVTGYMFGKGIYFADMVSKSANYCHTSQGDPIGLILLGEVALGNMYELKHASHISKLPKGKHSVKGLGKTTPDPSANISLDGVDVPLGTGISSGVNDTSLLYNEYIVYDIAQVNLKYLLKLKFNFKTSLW

Compound	Kd [1]	IC50 (PARP)	PF50 (Jurkat cell line)
O=C1Nc2cc(CN3CC=C(c4ccc(Cl)cc4)CC3)ccc2OC1F (centres unmarked) [Compound 97, 6-((4-(4-Chlorophenyl)-5,6-dihydropyridin-1(2H)-yl)methyl)-2-fluoro-2H-benzo[b][1,4]oxazin-3(4H)-one]	≤ 10 nM	–	≦0.9
O=C1Nc2cc(CN3CC=C(c4ccc(F)cc4)CC3)ccc2OC1F (centres unmarked) [Compound 101, 2-Fluoro-6-((4-(4-fluorophenyl)-5,6-dihydropyridin-1(2H)-yl)methyl)-2H-benzo[b][1,4]oxazin-3(4H)-one]	≤ 10 nM	–	1.0-1.9
Cc1ccc(C2CCN(CCc3ccc4c(c3)NC(=O)CO4)CC2)cc1 [Compound 124, 6-(2-(4-p-tolylpiperidin-1-yl)ethyl)-2H-benzo[b][1,4]oxazin-3(4H)-one]	126 to 1000 nM	–	1.0-1.9
CC1Oc2ccc(CN(C)CC(=O)N3CCN(c4ccccc4)CC3)cc2NC1=O (centres unmarked) [Compound 139, 2-Methyl-6-((methyl(2-oxo-2-(4-phenylpiperazin-1-yl)ethyl)amino)methyl)-2H-benzo[b][1,4]oxazin-3(4H)-one]	1260 to 10000 nM	–	1.0-1.9
COc1cc(CN2CCC(c3ccccc3)CC2)cc2c1OC(C)C(=O)N2 (centres unmarked) [Compound 157, 8-Methoxy-2-methyl-6-((4-phenylpiperidin-1-yl)methyl)-2H-benzo[b][1,4]oxazin-3(4H)-one]	12.6 to 100 nM	–	1.0-1.9
COc1cc(CN2CC=C(c3ccccc3)CC2)cc2c1OC(C)C(=O)N2 (centres unmarked) [Compound 158, 8-Methoxy-2-methyl-6-((4-phenyl-5,6-dihydropyridin-1(2H)-yl)methyl)-2H-benzo[b][1,4]oxazin-3(4H)-one]	12.6 to 100 nM	–	1.0-1.9
CC1Oc2c(Cl)cc(CN3CC=C(c4ccc(Cl)cc4)CC3)cc2NC1=O (centres unmarked) [Compound 166, 8-Chloro-6-((4-(4-chlorophenyl)-5,6-dihydropyridin-1(2H)-yl)methyl)-2-methyl-2H-benzo[b][1,4]oxazin-3(4H)-one]	–	≥ 126 nM	1.0-1.9
CNC(=O)CN1CCN(Cc2ccc3c(c2)NC(=O)C(C)O3)CC1 (centres unmarked) [Compound 171, N-Methyl-2-(4-((2-methyl-3-oxo-3,4-dihydro-2H-benzo[b][1,4]oxazin-6-yl)methyl)piperazin-1-yl)acetamide]	126 to 1000 nM	–	≦0.9
CCC1Oc2ccc(CN3CCC(c4ccccc4)CC3)cc2NC1=O (centres unmarked) [Compound 192, 2-Ethyl-6-((4-phenylpiperidin-1-yl)methyl)-2H-benzo[b][1,4]oxazin-3(4H)-one]	≤ 10 nM	–	1.0-1.9
CC1Oc2ccc(CN3CCC(c4ccc(C(F)(F)F)cc4)CC3)cc2NC1=O (centres unmarked) [Compound 213, 2-Methyl-6-((4-(4-(trifluoromethyl)phenyl)piperidin-1-yl)methyl)-2H-benzo[b][1,4]oxazin-3(4H)-one]	126 to 1000 nM	–	1.0-1.9
CC1Oc2ccc(CN3CCN(c4ccc(C(=O)NCC5CC5)cc4)CC3)cc2NC1=O (centres unmarked) [Compound 226, N-(Cyclopropylmethyl)-4-(4-((2-methyl-3-oxo-3,4-dihydro-2H-benzo[b][1,4]oxazin-6-yl)methyl)piperazin-1-yl)benzamide]	–	39.8 to 100 nM	≦0.9
Cc1ccc(N2CCN(Cc3ccc4c(c3)NC(=O)C(C)O4)CC2)nc1 (centres unmarked) [Compound 229, 2-Methyl-6-((4-(5-methylpyridin-2-yl)piperazin-1-yl)methyl)-2H-benzo[b][1,4]oxazin-3(4H)-one]	≤ 10 nM	–	1.0-1.9
CC1Oc2ccc(CN3CCN(c4ccc(C(F)(F)F)cn4)CC3)cc2NC1=O (centres unmarked) [Compound 230, 2-Methyl-6-((4-(5-(trifluoromethyl)pyridin-2-yl)piperazin-1-yl)methyl)-2H-benzo[b][1,4]oxazin-3(4H)-one]	12.6 to 100 nM	–	1.0-1.9
CC1Oc2ccc(CN3Cc4ccc(NC(=O)c5ccccc5)cc4C3)cc2NC1=O (centres unmarked) [Compound 244, N-(2-((2-Methyl-3-oxo-3,4-dihydro-2H-benzo[b][1,4]oxazin-6-yl)methyl)isoindolin-5-yl)benzamide]	1260 to 10000 nM	–	≦0.9
CCOC(=O)c1ccc(N2CCN(Cc3cc(C)c4c(c3)NC(=O)C(C)O4)CC2)nc1 (centres unmarked) [Compound 256, Ethyl 6-(4-((2,8-dimethyl-3-oxo-3,4-dihydro-2H-benzo[b][1,4]oxazin-6-yl)methyl)piperazin-1-yl)nicotinate]	126 to 1000 nM	–	1.0-1.9
CNC(=O)c1ccc(N2CCN(Cc3cc(C)c4c(c3)NC(=O)C(C)O4)CC2)nc1 (centres unmarked) [Compound 260, 6-(4-((2,8-Dimethyl-3-oxo-3,4-dihydro-2H-benzo[b][1,4]oxazin-6-yl)methyl)piperazin-1-yl)-N-methylnicotinamide]	≤ 10 nM	–	2.0-9.9
Cc1cc(CN2CCN(c3ccc(C(=O)NC4CC4)cn3)CC2)cc2c1OC(C)C(=O)N2 (centres unmarked) [Compound 262, N-Cyclopropyl-6-(4-((2,8-dimethyl-3-oxo-3,4-dihydro-2H-benzo[b][1,4]oxazin-6-yl)methyl)piperazin-1-yl)nicotinamide]	≤ 10 nM	–	2.0-9.9
Cc1cc2c(cc1CN1CC=C(c3ccc(Cl)cc3)CC1)NC(=O)C(C)O2 (centres unmarked) [Compound 321, 6-((4-(4-Chlorophenyl)-5,6-dihydropyridin-1(2H)-yl)methyl)-2,7-dimethyl-2H-benzo[b][1,4]oxazin-3(4H)-one]	–	2 nM	1.4

Continued, in another order:

Kd [1]	IC50 (PARP)	Compound	PF50 (Jurkat cell line)
–	39.8 to 100 nM	CC1Oc2c(Cl)cc(CN3CCN(c4ccc(Cl)cc4)CC3)cc2NC1=O (centres unmarked) [Compound 167, 8-Chloro-6-((4-(4-chlorophenyl)piperazin-1-yl)methyl)-2-methyl-2H-benzo[b][1,4]oxazin-3(4H)-one]	≦0.9
–	≥ 126 nM	CC(=O)c1ccc(N2CCN(Cc3ccc4c(c3)NC(=O)C(C)O4)CC2)cc1 (centres unmarked) [Compound 218, 6-((4-(4-Acetylphenyl)piperazin-1-yl)methyl)-2-methyl-2H-benzo[b][1,4]oxazin-3(4H)-one]	≦0.9
–	≤ 31.6 nM	CCNC(=O)c1ccc(N2CCN(Cc3ccc4c(c3)NC(=O)[C@H](C)O4)CC2)cc1 [Compound 249, (S)-N-Ethyl-4-(4-((2-methyl-3-oxo-3,4-dihydro-2H-benzo[b][1,4]oxazin-6-yl)methyl)piperazin-1-yl)benzamide]	1.0-1.9
–	≤ 31.6 nM	CCNC(=O)c1ccc(N2CCN(Cc3ccc4c(c3)NC(=O)[C@@H](C)O4)CC2)cc1 [Compound 250, (R)-N-Ethyl-4-(4-((2-methyl-3-oxo-3,4-dihydro-2H-benzo[b][1,4]oxazin-6-yl)methyl)piperazin-1-yl)benzamide]	2.0-9.9
–	≤ 31.6 nM	CCNC(=O)c1ccc(N2CCN(Cc3cc(C)c4c(c3)NC(=O)C(C)O4)CC2)cc1 (centres unmarked) [Compound 258, 4-(4-((2,8-Dimethyl-3-oxo-3,4-dihydro-2H-benzo[b][1,4]oxazin-6-yl)methyl)piperazin-1-yl)-N-ethylbenzamide]	≧10.0
≤ 10 nM	–	CC1Oc2c(F)cc(CN3CCN(c4ccc(C#N)cc4)CC3)cc2NC1=O (centres unmarked) [Compound 266, 4-(4-((8-Fluoro-2-methyl-3-oxo-3,4-dihydro-2H-benzo[b][1,4]oxazin-6-yl)methyl)piperazin-1-yl)benzonitrile]	≦0.9
–	79.4 nM	CCOC(=O)c1ccc(N2CCN(Cc3cc(Cl)c4c(c3)NC(=O)C(C)O4)CC2)cc1 (centres unmarked) [Compound 306, Ethyl 4-(4-((8-chloro-2-methyl-3-oxo-3,4-dihydro-2H-benzo[b][1,4]oxazin-6-yl)methyl)piperazin-1-yl)benzoate]	1.3
–	20 nM	CNC(=O)c1ccc(N2CCN(Cc3cc(Cl)c4c(c3)NC(=O)C(C)O4)CC2)cc1 (centres unmarked) [Compound 308, 4-(4-((8-Chloro-2-methyl-3-oxo-3,4-dihydro-2H-benzo[b][1,4]oxazin-6-yl)methyl)piperazin-1-yl)-N-methylbenzamide]	6.3
–	5.01 nM	CCNC(=O)c1ccc(N2CCN(Cc3cc(Cl)c4c(c3)NC(=O)C(C)O4)CC2)cc1 (centres unmarked) [Compound 309, 4-(4-((8-Chloro-2-methyl-3-oxo-3,4-dihydro-2H-benzo[b][1,4]oxazin-6-yl)methyl)piperazin-1-yl)-N-ethylbenzamide]	5.2
–	31.6 nM	CNC(=O)c1ccc(N2CCN(Cc3cc(F)c4c(c3)NC(=O)C(C)O4)CC2)nc1 (centres unmarked) [Compound 314, 6-(4-((8-Fluoro-2-methyl-3-oxo-3,4-dihydro-2H-benzo[b][1,4]oxazin-6-yl)methyl)piperazin-1-yl)-N-methylnicotinamide]	1.8
